Experimental data: PubChem BioAssay AID330 (DTP/NCI, 2004)
Values joined by “and” are separate entries in the source; they are usually repeats but may differ in a detail not shown here. Equal entries are not always repeated. Toxic doses and inconclusive results are not listed. Rule for the calls: active = survival T/C of 150% or more; inactive = T/C below 125% in these data.

Test system: P388 leukemia ip, CD2F1 mice, survival T/C
Assay: NCI In Vivo Anticancer Drug Screen. Data for tumor model P388 Leukemia (intraperitoneal) in CD2F1 (CDF1) mice
Settings: endpoint: median survival time, higher = longer survival
In short: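 Mice carrying the transplanted tumor received test compound or vehicle. Survival was recorded in each group, and the value is the treated-group measurement divided by that of the vehicle-treated control group.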

[1] = dose: 25.0 mg/kg/injection, schedule: Q01DX005 (ip), vehicle: saline with Tween-80
[2] = dose: 50.0 mg/kg/injection, schedule: Q01DX005 (ip), vehicle: saline with Tween-80
[3] = dose: 100.0 mg/kg/injection, schedule: Q01DX005 (ip), vehicle: saline with Tween-80
[4] = dose: 12.5 mg/kg/injection, schedule: Q01DX005 (ip), vehicle: saline with Tween-80
[5] = dose: 50.0 mg/kg/injection, schedule: Q01DX009 (ip), vehicle: Klucel (hydroxypropylcellulose) (HPC)
[6] = dose: 100.0 mg/kg/injection, schedule: Q01DX009 (ip), vehicle: Klucel (hydroxypropylcellulose) (HPC)
[7] = dose: 200.0 mg/kg/injection, schedule: Q01DX009 (ip), vehicle: Klucel (hydroxypropylcellulose) (HPC)
[8] = dose: 12.5 mg/kg/injection, schedule: Q01DX005 (ip), vehicle: Klucel (hydroxypropylcellulose) (HPC)
[9] = dose: 25.0 mg/kg/injection, schedule: Q01DX005 (ip), vehicle: Klucel (hydroxypropylcellulose) (HPC)
[10] = dose: 50.0 mg/kg/injection, schedule: Q01DX005 (ip), vehicle: Klucel (hydroxypropylcellulose) (HPC)
[11] = dose: 100.0 mg/kg/injection, schedule: Q01DX005 (ip), vehicle: Klucel (hydroxypropylcellulose) (HPC)
[12] = dose: 200.0 mg/kg/injection, schedule: Q01DX005 (ip), vehicle: Klucel (hydroxypropylcellulose) (HPC)

Measured: T/C

COc1ccc(N2C(=S)N(c3cccc(Cl)c3Cl)C(=O)C(N=Nc3ccccc3Cl)C2O)cc1 (configuration not stated)
inactive: dose: 100.0 mg/kg/injection, schedule: Q04DX003 (ip), vehicle: distilled water + alcohol 102 % of control | dose: 200.0 mg/kg/injection, schedule: Q04DX003 (ip), vehicle: distilled water + alcohol 99 % of control | dose: 400.0 mg/kg/injection, schedule: Q04DX003 (ip), vehicle: distilled water + alcohol 97 % of control

CN(C)c1ccc(/C=C/c2ccnc3ccc(Cl)cc23)cc1
inactive: dose: 25.0 mg/kg/injection, schedule: Q01DX009 (ip), vehicle: saline with Tween-80 118 % of control

CC[n+]1c(-c2ccccc2)c2cc(N)ccc2c2ccc(N)cc21 (tested in a mixture with another compound)
inactive: dose: 5.0 mg/kg/injection, schedule: Q01DX005 (ip), vehicle: other 102 % of control | dose: 10.0 mg/kg/injection, schedule: Q01DX005 (ip), vehicle: other 112 % of control | dose: 20.0 mg/kg/injection, schedule: Q01DX005 (ip), vehicle: other 102 % of control | dose: 40.0 mg/kg/injection, schedule: Q01DX005 (ip), vehicle: other 109 % of control | dose: 80.0 mg/kg/injection, schedule: Q01DX005 (ip), vehicle: other 119 % of control

CC(C)(C)C(=O)CC(=O)C(C)(C)C.CC(C)(C)C(=O)CC(=O)C(C)(C)C.[Cu]
inactive: dose: 4.75 mg/kg/injection, schedule: Q01DX009 (ip), vehicle: saline with Tween-80 104 % of control | dose: 9.5 mg/kg/injection, schedule: Q01DX009 (ip), vehicle: saline with Tween-80 95 % of control | dose: 19.0 mg/kg/injection, schedule: Q01DX009 (ip), vehicle: saline with Tween-80 95 % of control

OCCN(CCCN(CCO)C(=S)S)C(=S)S.[Cu+2]
inactive: dose: 12.5 mg/kg/injection, schedule: Q01DX005 (ip), vehicle: saline + Tween-80 + alcohol 98 % of control | dose: 25.0 mg/kg/injection, schedule: Q01DX005 (ip), vehicle: saline + Tween-80 + alcohol 99 % of control | dose: 50.0 mg/kg/injection, schedule: Q01DX005 (ip), vehicle: saline + Tween-80 + alcohol 102 % of control and 104 % of control

CNC(=O)OCc1c(COC(=O)NC)c2n(c1C)CS(=O)C2 (configuration not stated)
inactive: [1] 113 % of control | [2] 113 % of control | [3] 121 % of control and 122 % of control | dose: 200.0 mg/kg/injection, schedule: Q01DX005 (ip), vehicle: saline with Tween-80 113 % of control and 115 % of control

S=C=Nc1ccc(-c2csc(Nc3ccnc4cc(Cl)ccc34)n2)cc1
inactive: [4] 101 % of control | [1] 98 % of control | [2] 99 % of control and 91 % of control | [3] 94 % of control

CC(=O)OC1C=CC(SC23CC4CC(CC(C4)C2)C3)N(C(C)=O)C1SC12CC3CC(CC(C3)C1)C2 (configuration not stated)
inactive: [5] 103 % of control | [6] 105 % of control | [7] 99 % of control

CNS(=O)(=O)c1ccc(Cl)cc1
inactive: dose: 3.13 mg/kg/injection, schedule: Q01DX009 (ip), vehicle: saline 94 % of control | dose: 6.25 mg/kg/injection, schedule: Q01DX009 (ip), vehicle: saline 99 % of control | dose: 12.5 mg/kg/injection, schedule: Q01DX009 (ip), vehicle: saline 98 % of control | dose: 25.0 mg/kg/injection, schedule: Q01DX009 (ip), vehicle: saline 98 % of control

CCON1CCC(OC(=O)CC)(c2ccccc2)C(C)C1 (configuration not stated)
inactive: dose: 100.0 mg/kg/injection, schedule: Q01DX001 (ip), vehicle: saline 111 % of control | dose: 200.0 mg/kg/injection, schedule: Q01DX001 (ip), vehicle: saline 98 % of control

NC(=O)NC(=O)/C=C/C(=O)OCCCl
inactive: dose: 6.25 mg/kg/injection, schedule: Q01DX005 (ip), vehicle: Klucel (hydroxypropylcellulose) (HPC) 102 % of control | [8] 89 % of control | [9] 94 % of control | [10] 101 % of control

CCN(CC)CCCC(c1ccccc1)c1ccccc1
inactive: [4] 99 % of control | [1] 94 % of control | [2] 99 % of control and 110 % of control

CCOC(=O)CC(O)(c1ccc2c(c1)OCO2)c1cc(OC)c(OC)c(OC)c1 (configuration not stated)
inactive: [8] 100 % of control | [9] 94 % of control | [10] 94 % of control | [11] 89 % of control | [12] 88 % of control

CCOC(=O)/C(C#N)=C/Nc1ccncc1
inactive: dose: 50.0 mg/kg/injection, schedule: Q01DX009 (ip), vehicle: saline with Tween-80 95 % of control | dose: 100.0 mg/kg/injection, schedule: Q01DX009 (ip), vehicle: saline with Tween-80 87 % of control

COC(=O)C1=CC[C@@H]2C(C(=O)O)=CO[C@@H](OC3OC(CO)C(O)C(O)C3O)[C@H]12 (some centres not stated)
inactive: dose: 2.8 mg/kg/injection, schedule: Q01DX005 (ip), vehicle: saline + alcohol 101 % of control | dose: 5.5 mg/kg/injection, schedule: Q01DX005 (ip), vehicle: saline + alcohol 99 % of control | dose: 11.0 mg/kg/injection, schedule: Q01DX005 (ip), vehicle: saline + alcohol 108 % of control | dose: 22.0 mg/kg/injection, schedule: Q01DX005 (ip), vehicle: saline + alcohol 100 % of control

CC(C)=CCC(OC(=O)C=C(C)C)c1cc(O)c2c(O)ccc(O)c2c1O.[Co] (configuration not stated)
inactive: dose: 100.0 mg/kg/injection, schedule: Q01DX001 (ip), vehicle: saline with Tween-80 103 % of control | dose: 200.0 mg/kg/injection, schedule: Q01DX001 (ip), vehicle: saline with Tween-80 101 % of control | dose: 400.0 mg/kg/injection, schedule: Q01DX001 (ip), vehicle: saline with Tween-80 113 % of control

NC(N)=Nc1nc2ccccc2o1
inactive: dose: 50.0 mg/kg/injection, schedule: Q04DX003 (ip), vehicle: Klucel (hydroxypropylcellulose) (HPC) 90 % of control | dose: 100.0 mg/kg/injection, schedule: Q04DX003 (ip), vehicle: Klucel (hydroxypropylcellulose) (HPC) 100 % of control | dose: 200.0 mg/kg/injection, schedule: Q04DX003 (ip), vehicle: Klucel (hydroxypropylcellulose) (HPC) 100 % of control

O=c1cnc(=O)[nH][nH]1
inactive: dose: 60.0 mg/kg/injection, schedule: Q01DX005 (ip), vehicle: saline with Tween-80 103 % of control | dose: 120.0 mg/kg/injection, schedule: Q01DX005 (ip), vehicle: saline with Tween-80 91 % of control | dose: 240.0 mg/kg/injection, schedule: Q01DX005 (ip), vehicle: saline with Tween-80 93 % of control

C[As+](C)(C)CC(=O)O
inactive: dose: 50.0 mg/kg/injection, schedule: Q01DX009 (ip), vehicle: saline 99 % of control | dose: 100.0 mg/kg/injection, schedule: Q01DX009 (ip), vehicle: saline 99 % of control | dose: 200.0 mg/kg/injection, schedule: Q01DX009 (ip), vehicle: saline 101 % of control

C(CCSCCCCSCCCCCC1=NCCN1)CCC1=NCCN1
inactive: [10] 94 % of control | [11] 95 % of control | [12] 99 % of control

OC(c1ccc(F)cc1)(C1CC1)C1CC1
inactive: dose: 100.0 mg/kg/injection, schedule: Q01DX001 (ip), vehicle: saline + alcohol 98 % of control | dose: 200.0 mg/kg/injection, schedule: Q01DX001 (ip), vehicle: saline + alcohol 99 % of control | dose: 400.0 mg/kg/injection, schedule: Q01DX001 (ip), vehicle: saline + alcohol 101 % of control

c1ccc(N/N=C2/c3ccccc3CC23OC3c2ccccc2)cc1 (configuration not stated)
inactive: dose: 25.0 mg/kg/injection, schedule: Q01DX009 (ip), vehicle: Klucel (hydroxypropylcellulose) (HPC) 90 % of control | [5] 90 % of control | [6] 88 % of control | [7] 87 % of control | dose: 400.0 mg/kg/injection, schedule: Q01DX009 (ip), vehicle: Klucel (hydroxypropylcellulose) (HPC) 88 % of control

O=C(NC1=NN(c2ccccc2)C(=O)C1)c1ccccc1
inactive: dose: 9.37 mg/kg/injection, schedule: Q01DX009 (ip), vehicle: saline 101 % of control | dose: 18.75 mg/kg/injection, schedule: Q01DX009 (ip), vehicle: saline 110 % of control | dose: 37.5 mg/kg/injection, schedule: Q01DX009 (ip), vehicle: saline 98 % of control

O=S(=O)(c1ccc(N=C=S)cc1)c1ccc(N=C=S)cc1
inactive: [9] 112 % of control
